Data from patent US7211428B1, “Strain of Bacillus as a bioinoculant” (Council of Scientific and Industrial Research, priority 2004, dated 2007).

Test system: geranium cuttings
Test: Root initiation and survival of geranium cuttings after treatment
Assay type: in vivo, Pelargonium graveolens
Parameters: % survivality, Normal / % survivality, Two node / % survivality, Apical: concentration or dose not given beside the values
Conditions: for % survivality, Apical: apical cuttings; for % survivality, Normal: normal cuttings; for % survivality, Two node: two node cuttings
From the text: Geranium cuttings treated with Bacillus strain MTCC-5130, initiated rooting after 22–25 days of treatment, which was 5–7 days earlier than untreated control cuttings.

Substance: Indole butyric acid [IBA]
- Root initiation (days after) (cuttings of Dec. 5, 2001): 28 days
- % survivality, Apical (cuttings of Dec. 5, 2001): 100.0%
- % survivality, Normal (cuttings of Dec. 5, 2001): 100%
- % survivality, Two node (cuttings of Dec. 5, 2001): 100%
- Root initiation (days after) (cuttings of Nov. 20, 2001): 27 days
- % survivality, Apical (cuttings of Nov. 20, 2001): 95.8%
- % survivality, Normal (cuttings of Nov. 20, 2001): 100%
- % survivality, Two node (cuttings of Nov. 20, 2001): 69.2%
